According to patent publication US20100022509A1, “Inhibitors of MshC and Homologs Thereof, and Methods of Identifying Same” (priority 2006, published 2010):

Biological target: T1, MshC (Mycobacterium tuberculosis, UniProt P9WJM9)
T1 sequence (P9WJM9 1-414): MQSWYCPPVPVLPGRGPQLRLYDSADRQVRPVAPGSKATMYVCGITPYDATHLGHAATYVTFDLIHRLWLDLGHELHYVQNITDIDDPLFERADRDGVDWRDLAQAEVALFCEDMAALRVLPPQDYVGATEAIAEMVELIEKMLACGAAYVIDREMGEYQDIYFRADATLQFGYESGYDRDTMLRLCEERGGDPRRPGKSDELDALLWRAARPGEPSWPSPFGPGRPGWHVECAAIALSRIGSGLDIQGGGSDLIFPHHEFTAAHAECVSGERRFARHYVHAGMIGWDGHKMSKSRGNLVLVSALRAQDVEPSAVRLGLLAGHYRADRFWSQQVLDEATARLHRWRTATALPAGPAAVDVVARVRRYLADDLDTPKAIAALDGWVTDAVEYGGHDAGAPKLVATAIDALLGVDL
Test: biochemical
Assay type: biochemical, M. tuberculosis
Settings: not given

**Q.** Which results are given for `CCCN(CCC)CCCNC(=O)c1ccc2c(c1)N(Cc1cccc(Cl)c1)C(=O)c1ccccc1S2(=O)=O` [Inhibitor 83-83]?
**A.** inhibition of MshC in words, 1,3-diaminopropyl residue with remote amino residue capable of protonation: measurable inhibition; inhibition of MshC in words, Z is a benzyl moiety bearing one or more halogens: Measurable inhibition

**Q.** Which “inhibition of MshC in words, 1,3-diaminopropyl residue with remote amino residue capable of protonation” value (“inhibition of MshC in words … of protonation” below) does the source give for `CN(C)CCCNC(=O)c1ccc2c(c1)N(Cc1ccc(Cl)cc1)C(=O)c1ccccc1[S+]2[O-]` (stereo not drawn) [Inhibitor 1028] here?
**A.** Its value is “measurable inhibition”.

**Q.** What about the “inhibition of MshC in words, Z is a benzyl moiety bearing one or more halogens” value of the same compound?
**A.** Its value is “Measurable inhibition”.

**Q.** And the “inhibition of MshC in words, compounds grouped by X” value (from here on “inhibition of MshC in words … by X”)?
**A.** The value was “Significant inhibition”.

**Q.** `CC1CCCN(CCCNC(=O)c2ccc3c(c2)N(Cc2ccc(F)cc2)C(=O)c2ccccc2[S+]3[O-])C1` (stereo not drawn) [Inhibitor 1051] was tested. Which “inhibition of MshC in words … of protonation” value did it give?
**A.** Its value is “measurable inhibition”.

**Q.** What about the “inhibition of MshC in words, Z is a benzyl moiety bearing one or more halogens” value of the same compound?
**A.** The value was “Measurable inhibition”.

**Q.** How did the “inhibition of MshC in words … of protonation” value turn out when `Cc1ccc(C)c(CN2C(=O)c3ccccc3[S+]([O-])c3ccc(C(=O)NCCCN4CCCC4)cc32)c1` (stereo not drawn) [Inhibitor 1061] was run?
**A.** The value was “measurable inhibition”.

**Q.** What about the “inhibition of MshC in words, Z benzyl moiety with methyl groups in the 2,5 positions or unsubstituted” value of the same compound?
**A.** Its value is “Weak but detectable inhibition”.

**Q.** How did the “inhibition of MshC in words … of protonation” value turn out when `CCCCN(C)CCCNC(=O)c1ccc2c(c1)N(Cc1cc(C)ccc1C)C(=O)c1ccccc1[S+]2[O-]` (stereo not drawn) [Inhibitor 1062] was run?
**A.** The value was “measurable inhibition”.

**Q.** What about the “inhibition of MshC in words, Z benzyl moiety with methyl groups in the 2,5 positions or unsubstituted” value of the same compound?
**A.** Its value is “Weak but detectable inhibition”.

Same assay, conditions: IC50

**Q.** With `CC(C)CN(CCCNC(=O)c1ccc2c(c1)N(Cc1ccccc1)C(=O)c1ccccc1S2(=O)=O)CC(C)C` [Inhibitor 83-53] as the compound, how does the IC50 read?
**A.** Its IC50 is greater than 3000 µM.

**Q.** Which IC50 does the source give for `CC1CCCN(CCCNC(=O)c2ccc3c(c2)N(Cc2cccc(Cl)c2)C(=O)c2ccccc2S3(=O)=O)C1` (stereo not drawn) [Inhibitor 83-57] here?
**A.** Its IC50 is roughly 1000 µM.

**Q.** How did the IC50 turn out when `CN(CCCNC(=O)c1ccc2c(c1)N(Cc1cccc(Cl)c1)C(=O)c1ccccc1S2(=O)=O)c1ccccc1` [Inhibitor 83-59] was run?
**A.** The IC50 was greater than 3000 µM.

**Q.** `CN(CCCNC(=O)c1ccc2c(c1)N(Cc1cccc(Cl)c1)C(=O)c1ccccc1[S+]2[O-])c1ccccc1` (stereo not drawn) [Inhibitor 83-63] was tested. Which IC50 did it give?
**A.** Its IC50 is greater than 2000 µM.

**Q.** `CC(C)CN(CCCNC(=O)c1ccc2c(c1)N(Cc1cccc(Cl)c1)C(=O)c1ccccc1[S+]2[O-])CC(C)C` (stereo not drawn) [Inhibitor 83-67] was tested. Which IC50 did it give?
**A.** The IC50 was roughly 3000 µM.

**Q.** With `O=C(NC1CCN(Cc2ccccc2)CC1)c1ccc2c(c1)N(Cc1cccc(Cl)c1)C(=O)c1ccccc1[S+]2[O-]` (stereo not drawn) [Inhibitor 83-68] as the compound, how does the IC50 read?
**A.** The IC50 was 1500 ± 500 µM.

**Q.** How did the IC50 turn out when `CCCCN(CCCNC(=O)c1ccc2c(c1)N(Cc1cccc(Cl)c1)C(=O)c1ccccc1[S+]2[O-])Cc1ccccc1` (stereo not drawn) [Inhibitor 83-76] was run?
**A.** Its IC50 is no less than 3000 µM.

**Q.** How did the IC50 turn out when `CC1CC(C)CN(CCCNC(=O)c2ccc3c(c2)N(Cc2cccc(Cl)c2)C(=O)c2ccccc2S3(=O)=O)C1` (stereo not drawn) [Inhibitor 83-77] was run?
**A.** The IC50 was 2300 ± 700 µM.

**Q.** How did the IC50 turn out when `O=C(NCC1CCN(Cc2ccccc2)CC1)c1ccc2c(c1)N(Cc1cccc(Cl)c1)C(=O)c1ccccc1S2(=O)=O` [Inhibitor 83-80] was run?
**A.** The IC50 was greater than 3000 µM.

**Q.** `CC(C)CN(CCCNC(=O)c1ccc2c(c1)N(Cc1cccc(Cl)c1)C(=O)c1ccccc1S2(=O)=O)CC(C)C` [Inhibitor 83-81] was tested. Which IC50 did it give?
**A.** The IC50 was greater than 3000 µM.

**Q.** With `O=C(NCCCN1CCOCC1)c1ccc2c(c1)N(Cc1cccc(Cl)c1)C(=O)c1ccccc1S2(=O)=O` [Inhibitor 83-82] as the compound, how does the IC50 read?
**A.** The IC50 was roughly 3000 µM.

**Q.** How did the IC50 turn out when `CCCN(CCC)CCCNC(=O)c1ccc2c(c1)N(Cc1cccc(Cl)c1)C(=O)c1ccccc1S2(=O)=O` [Inhibitor 83-83] was run?
**A.** Its IC50 is 980 ± 40 µM.

Same assay, conditions: IC50, μM

**Q.** With `CN(C)CCCNC(=O)c1ccc2c(c1)N(Cc1ccc(Cl)cc1)C(=O)c1ccccc1[S+]2[O-]` (stereo not drawn) [Inhibitor 1028] as the compound, how does the IC50 read?
**A.** Its IC50 is 335 ± 15 µM.

**Q.** How did the IC50 turn out when `CC1CCCN(CCCNC(=O)c2ccc3c(c2)N(Cc2ccc(F)cc2)C(=O)c2ccccc2[S+]3[O-])C1` (stereo not drawn) [Inhibitor 1051] was run?
**A.** Its IC50 is 710 ± 20 µM.

**Q.** Which IC50 does the source give for `Cc1ccc(C)c(CN2C(=O)c3ccccc3[S+]([O-])c3ccc(C(=O)NCCCN4CCCC4)cc32)c1` (stereo not drawn) [Inhibitor 1061] here?
**A.** Its IC50 is 1600 ± 300 µM.

**Q.** `CCCCN(C)CCCNC(=O)c1ccc2c(c1)N(Cc1cc(C)ccc1C)C(=O)c1ccccc1[S+]2[O-]` (stereo not drawn) [Inhibitor 1062] was tested. Which IC50 did it give?
**A.** Its IC50 is roughly 2500 µM.

**Q.** `CCN1C(=O)c2ccccc2[S+]([O-])c2ccc(C(=O)NCCCN3CCOCC3)cc21` (stereo not drawn) [Inhibitor 1075] was tested. Which IC50 did it give?
**A.** The IC50 was greater than 3000 µM.

**Q.** With `CCN1C(=O)c2ccccc2[S+]([O-])c2ccc(C(=O)NCCN3CCCCCC3)cc21` (stereo not drawn) [Inhibitor 1081] as the compound, how does the IC50 read?
**A.** The IC50 was greater than 3000 µM.

Same assay, conditions: X=S, X=SO, X=SO2

**Q.** For `CCCCN(C)CCCNC(=O)c1ccc2c(c1)N(Cc1cccc(Cl)c1)C(=O)c1ccccc1[S+]2[O-]` (stereo not drawn) [Inhibitor 83-60], which “inhibition of MshC in words … by X” value is on record?
**A.** The value was “Significant inhibition”.

**Q.** For `CCCN(CCC)CCCNC(=O)c1ccc2c(c1)N(Cc1cccc(Cl)c1)C(=O)c1ccccc1S2(=O)=O` [Inhibitor 83-83], which “inhibition of MshC in words … by X” value is on record?
**A.** The value was “Significant inhibition”.

**Q.** For `CC1CCCN(CCCNC(=O)c2ccc3c(c2)N(Cc2ccc(F)cc2)C(=O)c2ccccc2[S+]3[O-])C1` (stereo not drawn) [Inhibitor 1051], which “inhibition of MshC in words … by X” value is on record?
**A.** Its value is “Significant inhibition”.

**Q.** How did the “inhibition of MshC in words … by X” value turn out when `Cc1ccc(C)c(CN2C(=O)c3ccccc3[S+]([O-])c3ccc(C(=O)NCCCN4CCCC4)cc32)c1` (stereo not drawn) [Inhibitor 1061] was run?
**A.** The value was “Significant inhibition”.
